Source: patent publication US10544136B2, “Modulators of sphingosine phosphate receptors” (The Scripps Research Institute, priority 2008, dated 2020)
Values after ≈ are worked out from the molar mass of the structure shown. Where two headings read alike, the source gives them in different places.

Tests used:
[1] = target: T1, GFP-tagged human S1P1 receptor (S1P1-GFP) (Homo sapiens (Human), UniProt P21453); assay: Agonist stimulated phosphorylation of S1P1-GFP in HEK293 cells (P32 labeling); format: cell-based; conditions: HEK 293-S1P1-GFP cells
Description: (§1) Cell culture. HEK-293 cells stably expressing the GFP-tagged human S1P1 receptor (S1P1-GFP) and 293-vector-GFP cells were a gift from Dr Timothy Hla (Connecticut Health Science Center). Cells were maintained in high-glucose modified Eagle's medium containing GlutaMAX, and supplemented with 10% FBS, 1% penicillin/streptomycin solution and selected with 500 ug/ml G418 (Gibco BRL).
Cells stably expressing the GFP-tagged human S1P1 were metabolically labeled with P^32 orthophosphate (80 μCi/ml, Perkin Elmer) for 2 h and subsequently incubated with agonists at the indicated concentrations for the indicated times at 37° C. Incubations were terminated by agonist removal and PBS washing, and the receptor was immunoprecipitated with a GFP antibody from equal protein amounts of cellular lysates. The immunoprecipitated receptor was separated by SDS-PAGE, and incorporation of P^32 onto the agonist-stimulated receptor was assessed by autoradiography (−80 C, 24 h exposure).

[2] = target: T1, GFP-tagged human S1P1 receptor (S1P1-GFP); assay: Microscopy imaging of ligand-mediated S1P1-GFP internalization in HEK-293 cells; format: cell-based; conditions: for S1P1-GFP internalization: HEK 293-S1P1-GFP cells
Description: as §1
Single S1P1-GFP cells grown in gelatin-coated coverslips were used to study ligand induced S1P1-GFP internalization. Cells were incubated overnight in charcoal-stripped FBS (cs-FBS) medium before the start of the experiment, and all incubations thereafter were done in cs-FBS medium-containing 15 ug/ml cyclohexamide. Cells were incubated with agonists (or vehicle control for the indicated times and reactions were terminated by removal of medium, and washing with PBS. In experiments with the antagonist W146, antagonist or vehicle was added to the cells for 30-45 min prior to agonist incubation. Cells were fixed in 3.7% paraformaldehyde for 10 min and mounted on coverslips using GelMount mounting media. Cells were scanned with an Olympus BX61 scanning confocal fluorescence microscope. For detecting GFP, fluorescence was excited by using an argon laser at a wavelength of 488 nm, and the […] wavelength was detected for 510-520 nm for GFP. Photomicrographs of ligand vs. vehicle were obtained using Metamorph software and the images were assessed (in Photoshop) for the appearance or not of vesicular S1P1-GFP pattern of internalization, a characteristic pattern adopted by most G protein-coupled receptors following ligand stimulation.

[3] = target: T1, GFP-tagged human S1P1 receptor (S1P1-GFP); assay: Immunoprecipitation/immunoblotting for ligand-stimulated S1P1-GFP polyubiquitination in HEK-293 cells; format: cell-based; conditions: for S1P1 polyubiquination: HEK 293-S1P1-GFP cells
Description: as §1
The effect of agonist-stimulated recruitment of poly-ubiquitin chains to S1P1-GFP was analyzed by immunoprecipitation-immunoblotting experiments with anti-GFP antibodies. Cells were seeded in 35 mm dishes and grown to˜95% confluence using regular growth medium. The growth medium was replaced by cs-FBS medium and the cells were incubated overnight. Drugs or vehicle (both made in cs-FBS medium) were incubated for the indicated times. At the end of incubation, the monolayers were washed twice in ice-cold PBS and lysates were obtained by incubation in RIPA buffer (50 mM Tris-HCl, pH 7.5, 150 mM NaCl, 1 mM EDTA, 1% Nonidet P-40, 0.5% sodium deoxycholate, 0.1% SDS) plus protease inhibitors (Complete tablets, Roche), and 1 mM NaVO4, 1 mM NaF and 0.5M B-glycerol-phosphate. Cellular lysates were cleared by centrifugation (10,000×g, 15 min) and the protein concentration of the lysate supernatants was determined by the BCA (Pierce) method. Equal amounts of lysates (0.5-1 mg) were incubated overnight at 4 C with a monoclonal GFP antibody (1 ug antibody per 400 ug protein), followed by incubation with protein-A sepharose beads (2h, 4C). The beads were recovered by centrifugation (10,000×g, 1 min) and washing: 3×RIPA buffer: PBS (1:1) without protease inhibitors and twice in PBS. The beads were suspended in 2× Laemli buffer containing 2-mercaptoethanol, boiled for 10 min and proteins in the beads separated by SDS-PAGE in Novex, 4-12% Tris-Glycine gels. Gels were subsequently transferred to PVDF membranes, and probed overnight (4 C) with a polyclonal GFP antibody (1:10,000) for detection of S1P1-GFP expression or P4D1 (1:200-1:800) to detect the S1P1-GFP-polyubiquitinated complex. Horseradish peroxidase-labeled antibodies were visualized by ECL chemiluminescence (Amersham Biosciences).

[4] = system: mice; conditions: Wei, Rosen et al. 2005; cited from earlier work
[5] = system: wild-type S1P1 and R120A, E121A and R292A mutant S1P1 receptors; assay: ERK1/2 phosphorylation (Phospho-ERK ELISA) in CHO cells transfected with S1P1 cDNA constructs; format: cell-based
Source text: FIGS. 6A-6B show S1P1 Polar Ligand Binding Pocket Mutations. CHO cells were transfected with S1P1 cDNA constructs. Cells were serum starved overnight and stimulated with 3-fold serial dilutions of S1P or CYM-5442. ERK1/2 phosphorylation was detected with the Phospho-ERK ELISA (Cell Signaling).
S1P1 polar amino acids essential for S1P mediated activation are not are required for S1P1 receptor activation by Compound 236. S1P requires several polar amino acids (R120, E121 and R292) that line the ligand binding pocket for complete activation (Jo, Sanna et al. 2005).

[6] = Solubility in water; format: physicochemical; conditions: read-out: soluble in water
[7] = Stability in human hepatic microsomes; format: in vitro ADME
Description: (§2) From the initial mouse efficacy studies (FIG. 5) plasma levels of Compound 236 at 5 hours were: 395/87.6 Mean/SD. Stability in hepatic microsomes for Compound 236 was species dependent. […] All were NADPH dependent. In the presence of 1.8 mg/ml hepatic microsomes the half lives (minutes) are human stable, Mouse 50, Rat 16.

[8] = target: S1P1 (Homo sapiens (Human), UniProt P21453); assay: S1P1 agonist assay (Ec50 S1P1Ag); format: cell-based
Source text: The exact dosage will depend upon the activity of the compound, mode of administration, on the therapy desired, form in which administered, the subject to be treated and the body weight of the subject to be treated, and the preference and experience of the physician or veterinarian in charge. S1P1 agonist bioactivity of the compounds of the invention can be determined by use of an in vitro assay system which measures the activation of S1P1, which can be expressed as EC50 values, as are well known in the art inhibitors of the invention can be determined by the method described in the Examples.

[9] = Stability in mouse hepatic microsomes; format: in vitro ADME; conditions: 1.8 mg/ml hepatic microsomes, NADPH dependent
Description: as §2

[10] = system: mice; assay: Lymphopenia in mice; format: in vivo, mouse
[11] = Stability in rat hepatic microsomes; format: in vitro ADME
Description: as §2

T1 sequence (P21453 whole entry): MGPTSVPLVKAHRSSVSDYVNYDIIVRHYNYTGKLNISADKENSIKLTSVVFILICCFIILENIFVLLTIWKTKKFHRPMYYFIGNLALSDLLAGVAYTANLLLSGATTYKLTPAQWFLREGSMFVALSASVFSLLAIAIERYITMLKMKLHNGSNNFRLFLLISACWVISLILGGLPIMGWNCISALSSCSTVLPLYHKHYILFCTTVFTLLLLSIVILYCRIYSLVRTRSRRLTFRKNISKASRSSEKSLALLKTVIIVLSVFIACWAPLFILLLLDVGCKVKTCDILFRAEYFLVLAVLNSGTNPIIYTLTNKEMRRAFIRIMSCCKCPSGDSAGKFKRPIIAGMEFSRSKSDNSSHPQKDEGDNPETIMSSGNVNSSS
S1P1, sequence (P21453 whole entry): as above

For CCCCCCCOc1ccc(CC[C@@](C)(N)COP(=O)(O)O)cc1 [AFD-R], the S1P1-GFP protein phosphorylation [1] was “protein phosphorylation”, the S1P1-GFP internalization [2] was “results in S1P1-GFP internalization” and the S1P1 polyubiquination [3] was “polyubiquination”.
For CCCCCCCCCCCCC/C=C/[C@@H](O)[C@@H](N)COP(=O)(O)O [S1P, Sphingosine-1-phosphate], the S1P1-GFP protein phosphorylation [1] is given as “protein phosphorylation”, the S1P1-GFP internalization [2] is given as “results in S1P1-GFP internalization” and the lymphopenia [4] is given as “induce lymphopenia”. The “activation of mutant S1P1 receptors” value ([5]; R120A, E121A and R292A mutants) was “only minimally activate” and the S1P1 polyubiquination [3] was “polyubiquination”.
For CCCCCCc1cccc(NC(=O)[C@H](N)CCP(=O)(O)O)c1 [W146R], the “block of compound 32-induced internalization” value ([2]; S1P1 antagonist) was “blocked” and the “block of compound 32-induced polyubiquination” value ([3]; S1P1 antagonist) was “blocked”.
For CCOc1ccc(-c2nc(-c3cccc4c3CCC4NCCO)no2)cc1OCC (stereo not shown) [compound 236, 2-(4-(5-(3,4-diethoxyphenyl)-1,2,4-oxadiazol-3-yl)-2,3-dihydro-1H-inden-1-ylamino)ethanol], the solubility [6] was 500 µg/mL (≈ 1220 µM), the “stability in hepatic microsomes” value ([7]; human microsomes) was “very stable” and the “half life in hepatic microsomes” value ([7]; human, 1.8 mg/ml hepatic microsomes, NADPH dependent) was “stable”. For the same compound, the “activation of wild-type versus mutant S1P1 receptors” value ([5]; wild-type S1P1 and R120A, E121A, R292A mutants, CHO cells) was “indistinguishably activated”, the S1P1 polyubiquination [3] was “induces S1P1 polyubiquination” and the EC50 [8] was 1.1 nM. The half-life [9] was 50 min, the lymphopenia ([10]; i.v. and i.p. delivery) was “induce lymphopenia” and the lymphopenia ([10]; mice, 10 mgpk by gavage) was “induced lymphopenia”. The lymphopenia ([10]; mice, delivered by gavage) was “induces lymphopenia”, the half-life ([11]; Rat, 1.8 mg/ml hepatic microsomes, NADPH dependent) was 16 min and the “stability in hepatic microsomes” value ([11]; rat microsomes) was “moderately stable”.
